In brackets after ≈: the same amount, converted by molar mass. Entries after “also recorded” stand apart in the source; their conditions may differ.
Experiments:
[1] = system: APH; assay: APH inhibition / IC50 threshold used with simulated concentrations (FIG. 11); parameters: species or system human; conditions: dotted line in FIG. 11, serum ALXN2040 concentration
[2] = system: TF1PIGAnull cells; type: cell-based, human
[3] = system: C5b-9 deposition on TF1PIGAnull cells; type: cell-based, human
[4] = system: C3c deposition on TF1PIGAnull cells; type: cell-based, human
[5] = system: SARS-CoV-2 spike proteins binding to TF1PIGAnull cells; assay: Flow cytometry of coronavirus protein binding to TF1PIGAnull cells (heparan sulfate blockade, sialidase treatment); parameters: species or system human; conditions: sulfate sodium salt; for binding of S1 subunit to TF1PIGAnull cells: 5 μg/mL His-tagged S1 co-incubated with 2 mg/mL heparan sulfate solution; for binding of S2 subunit to TF1PIGAnull cells: 5 μg/mL His-tagged S2 co-incubated with 2 mg/mL heparan sulfate solution

Compound: CC(=O)c1nn(CC(=O)N2C[C@H](F)C[C@H]2C(=O)Nc2cccc(Br)n2)c2ccc(-c3cnc(C)nc3)cc12 [Compound 1, danicopan]
- IC50 value [1]: 0.235 mg/L (≈ 0.405 µM)

Compound: CC(=O)c1nn(CC(=O)N2[C@H]3C[C@]4(C[C@@H]24)Cn2cc(nn2)COCc2ccc(Br)nc2NC3=O)c2ccc(-c3cnc(C)nc3)cc12 [Compound 2]
- cell killing in the mHam assay induced by S1 and S2 [2]: inhibited; also recorded: prevented cell death
- C5b-9 deposition induced by S1 and S2 [3]: inhibit
- S1-induced C5b-9 deposition [3]: blocking; also recorded: completely blocked
- S2-induced C5b-9 deposition [3]: blocking
- C3c deposition induced by S1 and S2 [4]: more potent in blocking C3c deposition; also recorded: inhibit
- S1-induced C3c deposition [4]: blocking; also recorded: completely blocked
- S2-induced C3c deposition [4]: blocking

Compound: Heparan sulfate sodium salt
- binding of S1 subunit to TF1PIGAnull cells ([5]; listed as HS): significantly blocked
- binding of S1 subunit to TF1PIGAnull cells [5]: completely blocked
- binding of S2 subunit to TF1PIGAnull cells ([5]; listed as HS): significantly blocked
- binding of S2 subunit to TF1PIGAnull cells [5]: completely blocked

— patent US20230346784A1 (priority 2020, published 2023)
